We go through three molecules from patent US20210340572A1, “HIGH-CONTENT IMAGING OF MICROFLUIDIC DEVICES” (EMULATE, Inc., priority 2019, published 2021).

The structures appear in SMILES notation.

The test system of data set [1] is microfluidic devices seeded with human liver cells. As to the kind of experiment: DILI biomarker release (alpha-GST, miR-122, keratin 18) from human chips. Type of data set: cell-based. The text has this:
Exemplary Biomarker, e.g. DILI: Keratin 18 levels were quantified in human model effluent samples from both the hepatocyte and vascular channels using the M65 EpiDeath CK18 ELISA Kit (DiaPharma, Detroit, Mich., USA). The assay was run following the vendor protocol using a standard curve ranging from 0-5,000 U/L. Additionally, a standard curve ranging from 0-500 U/L was generated independently for quality control.
Exemplary Biomarker, e.g. DILI: Alpha Glutathione S-Transferase (α-GST) levels were quantified in human model effluent samples from the upper channel using an ELISA kit (DiaPharma). The assay was run following the vendor protocol using a standard curve ranging from 0-64 μg/L. Additionally, a standard curve ranging from 0-50 μg/L was generated independently for quality control.
Exemplary Biomarker, e.g. DILI: Mir-122: Isolation of micro-RNAs was performed on upper and lower chamber eluates using Qiagen's (Hilden, Germany) miRNA isolation kit for serum and plasma. A total volume of 50 μL was used for isolation. Isolation was performed according to manufacturer's protocol using a 56.5 pM oligonucleotide spike-in control. Samples were eluted with 14 μL RNase-free water. Reverse transcription was performed using Thermo Fisher Scientific's TaqMan™ MicroRNA Reverse Transcription Kit according to the manufacturer's protocol. A total reaction volume of 15 μL was used. Real-time PCR was performed using Thermo Fisher Scientific's TaqMan™ Micro-RNA Assays according to manufacturer's protocol. A total reaction volume of 10 μl was used. Normalized rrCt was used for fold-change analysis.

Data set [2] shares this test system. As to the kind of experiment: Cytokine release (IL-6, MCP-1, IP-10) from the vascular channel of human chips. Type of data set: cell-based. As to conditions: for release of cytokines/chemokines including IP-10: treated chips; for IL-6 release / MCP-1 release: 14 days. The method, then:
Cytokines: Release of IL-6, MCP-1, and IP-10 from the vascular channel was quantified using U-PLEX biomarker human assays (Meso Scale Diagnostics, Rockville, Md., USA) and the assays were performed according to the protocol provided by the vendor.

For data set [3] the test system is unchanged. As to the kind of experiment: Lipid accumulation (Nile red / AdipoRed) in human chips. Type of data set: cell-based. The text has this:
(§1) Microfluidic devices seeded with liver cells were stained in the upper channel with 5(6)-Carboxy-2′,7′-dichlorofluorescein diacetate (CDFDA) (ThermoFisher) to visualize bile canaliculi and MRP2 activity, cholyl-lysyl-fluorescein (CLF) (Corning) to visualize bile canaliculi and BSEP activity, Nile red (ThermoFisher) or AdipoRed (Lonza) to visualize lipid droplet accumulation, Tetramethylrhodamine, methyl ester (TMRM) (ThermoFisher) to visualize active mitochondria, and CellROX® (ThermoFisher) to visualize cellular oxidative stress. Each staining solution was prepared in blank medium or compound dosing medium and added to the upper channel, incubated for 15 minutes at 37° C., and washed three times with medium. The stained microfluidic devices were imaged using a specific filter, and were de-blurred with Olympus cellSens software. Using ImageJ-Fiji, the fluorescent channel images were histogram adjusted to remove background, followed by fluorescence quantification using the Integrated Density calculation function.
(§2) The stained microfluidic devices were imaged using the TRITC filter, and were de-blurred with Olympus cellSens software. Using ImageJ-Fiji, the fluorescent channel images were histogram adjusted to remove background, followed by fluorescence quantification using the Integrated Density calculation function. N=5 FOVs per microfluidic device were analyzed for conditions: vehicle (0.1% DMSO), FIAU dosing groups, and MTX dosing groups.

Data set [4] has the same test system. As to the kind of experiment: Albumin secretion, microfluidic devices seeded with human liver cells. The data set is classed as cell-based. The text has this:
Prior to cell seeding, microfluidic devices, in this case S-1 Chips (Emulate, Inc. Boston, Mass., USA), were functionalized using Emulate's proprietary protocols and reagents (ERT™), including those described herein. After surface functionalization, both channels of the microfluidic device were coated with species-specific extracellular matrices (ECM). For the human bound microfluidic device, a mixture of collagen type I (Corning, Corning, N.Y., USA) and fibronectin, e.g. bovine, (Gibco) was used; for the rat bound microfluidic devices a mixture of collagen type IV, e.g. human placenta, (Sigma-Aldrich, St. Louis, Mo., USA) and fibronectin (Gibco) was used; for the dog bound microfluidic devices a mixture of collagen I (Corning), collagen type IV (Sigma-Aldrich), and fibronectin (Gibco) was used. […] For the dual-cell culture model (hepatocytes and endothelial cells), the LSECs were seeded at a concentration of 2-4 million cells/mL in the lower vascular channel. […] After cell seeding, the upper channel of the microfluidic device was maintained in William's E Medium (WEM) containing Glutamax (Gibco), ITS+(Corning), dexamethasone (Sigma-Aldrich), ascorbic acid (Sigma-Aldrich), fetal bovine serum (FBS) (Sigma-Aldrich), and Penicillin/Streptomycin (Sigma-Aldrich). The vascular channel of the microfluidic device was maintained with species-specific endothelial media (Emulate, Inc.). Two days after seeding, the microfluidic devices were connected to the Human Emulation System™ (Emulate, Inc.), as described in part herein, and both of the microfluidic device channels were perfused at 30 μL/hr to provide a continuous supply of fresh media for the duration of the experiments. Albumin secretion from the upper channel was quantified using ELISA kits for human, rat, and dog models effluent samples (human and rat: Abcam; dog: Immunology Consultants Laboratory, Inc., Portland, Oreg., USA) and the assays were performed according to the protocol provided by each vendor.

Data set [5] has as its system microfluidic devices seeded with rat liver cells. As to the kind of experiment: Lipid accumulation (Nile red) in rat chips. Type of data set: cell-based. As to conditions: rat chips, 1, 10, 30 μM, 10 days.
Description: as §1, with “The stained microfluidic devices were imaged using a specific filter, and were de-blurred with Olympus cellSens software.” left out
as §2

The test system is the same in data set [6]. As to the kind of experiment: Albumin secretion / hepatocyte function, microfluidic devices seeded with rat liver cells. Type of data set: cell-based. As to conditions: rat quadruple-cell chips, 1, 10, 30 μM. The text has this: Prior to cell seeding, microfluidic devices, in this case S-1 Chips (Emulate, Inc. Boston, Mass., USA), were functionalized using Emulate's proprietary protocols and reagents (ERT™), including those described herein. After surface functionalization, both channels of the microfluidic device were coated with species-specific extracellular matrices (ECM). For the human bound microfluidic device, a mixture of collagen type I (Corning, Corning, N.Y., USA) and fibronectin, e.g. bovine, (Gibco) was used; for the rat bound microfluidic devices a mixture of collagen type IV, e.g. human placenta, (Sigma-Aldrich, St. Louis, Mo., USA) and fibronectin (Gibco) was used; for the dog bound microfluidic devices a mixture of collagen I (Corning), collagen type IV (Sigma-Aldrich), and fibronectin (Gibco) was used. […] For the dual-cell culture model (hepatocytes and endothelial cells), the LSECs were seeded at a concentration of 2-4 million cells/mL in the lower vascular channel. […] Albumin secretion from the upper channel was quantified using ELISA kits for human, rat, and dog models effluent samples (human and rat: Abcam; dog: Immunology Consultants Laboratory, Inc., Portland, Oreg., USA) and the assays were performed according to the protocol provided by each vendor.

For data set [7] the following is noted: cited from earlier work.
Another data set relates to stellate cells. As to the kind of experiment: Stellate cell activation (alpha-SMA) in human chips. Type of data set: cell-based. How it is done:
Microfluidic devices seeded with liver cells and static sandwich plate cultures were fixed with 4% paraformaldehyde for 15 minutes at room temperature, washed with PBS, and permeabilized (saponin 1% with 10% serum in PBS). Blocking and incubation with the primary antibodies (overnight in PBS containing 1% BSA or PBS containing 10% serum and 1% BSA) was followed by a two-hour incubation with secondary antibodies (Cell Signaling, Danvers, Mass., USA) in the same blocking buffer. Immunostaining was performed with specific primary antibodies (anti-MRP2, anti-stabilin-1, anti-BSEP, anti-α-SMA, anti-CD68; Abcam, Cambridge, Mass., USA) and images were acquired with either an Olympus fluorescence microscope (IX83) or Zeiss confocal microscope (AxiovertZ1 LSM880).
The number of CD68- or α-SMA-positive cells in the vascular channel in each group was counted in each field of view ([…]) and quantified.
The fluorescent channel (588) was first background subtracted and processed using the median filter of Image J. After processing, the signal was thresholded using adaptive thresholding function of Image J (Otsu method) to extract fluorescent regions and to measure the relative intensity of the fluorescent signal. N=4 to 6 FOVs per microfluidic device from each microfluidic device were analyzed. […]

In data set [8] the test system is hepatocytes in microfluidic devices seeded with human liver cells. As to the kind of experiment: Hepatocyte morphology (bright-field) in human chips. Type of data set: cell-based. The conditions noted are these: quadruple-cell human chips, daily administration 7 days.
The target of a further data set is T1, MRP2 (Homo sapiens, UniProt Q92887).
T1 construct: Primary rat, dog or human hepatocytes were cultured in the upper parenchymal channel; endogenous in cells; host or cells: primary human hepatocytes in a microfluidic Liver-Chip
As to the kind of experiment: Biliary efflux of MRP2 substrate CDFDA in human chips. The conditions noted are these: TAK-875 3, 10, 30 μM, up to 15 days. Type of data set: cell-based.

Data set [9] deals with microfluidic devices seeded with human liver cells. As to the kind of experiment: Mitochondrial membrane potential (TMRM) in human chips. The data set is classed as cell-based. The conditions noted are these: TAK-875 3, 10, 30 μM, 8 or 15 days.
Description: as §1

Data set [10] has the same test system. As to the kind of experiment: ROS levels (CellROX) in human chips. The data set is classed as cell-based. The conditions noted are these: TAK-875, up to 15 days.

T1 sequence (Q92887 whole entry): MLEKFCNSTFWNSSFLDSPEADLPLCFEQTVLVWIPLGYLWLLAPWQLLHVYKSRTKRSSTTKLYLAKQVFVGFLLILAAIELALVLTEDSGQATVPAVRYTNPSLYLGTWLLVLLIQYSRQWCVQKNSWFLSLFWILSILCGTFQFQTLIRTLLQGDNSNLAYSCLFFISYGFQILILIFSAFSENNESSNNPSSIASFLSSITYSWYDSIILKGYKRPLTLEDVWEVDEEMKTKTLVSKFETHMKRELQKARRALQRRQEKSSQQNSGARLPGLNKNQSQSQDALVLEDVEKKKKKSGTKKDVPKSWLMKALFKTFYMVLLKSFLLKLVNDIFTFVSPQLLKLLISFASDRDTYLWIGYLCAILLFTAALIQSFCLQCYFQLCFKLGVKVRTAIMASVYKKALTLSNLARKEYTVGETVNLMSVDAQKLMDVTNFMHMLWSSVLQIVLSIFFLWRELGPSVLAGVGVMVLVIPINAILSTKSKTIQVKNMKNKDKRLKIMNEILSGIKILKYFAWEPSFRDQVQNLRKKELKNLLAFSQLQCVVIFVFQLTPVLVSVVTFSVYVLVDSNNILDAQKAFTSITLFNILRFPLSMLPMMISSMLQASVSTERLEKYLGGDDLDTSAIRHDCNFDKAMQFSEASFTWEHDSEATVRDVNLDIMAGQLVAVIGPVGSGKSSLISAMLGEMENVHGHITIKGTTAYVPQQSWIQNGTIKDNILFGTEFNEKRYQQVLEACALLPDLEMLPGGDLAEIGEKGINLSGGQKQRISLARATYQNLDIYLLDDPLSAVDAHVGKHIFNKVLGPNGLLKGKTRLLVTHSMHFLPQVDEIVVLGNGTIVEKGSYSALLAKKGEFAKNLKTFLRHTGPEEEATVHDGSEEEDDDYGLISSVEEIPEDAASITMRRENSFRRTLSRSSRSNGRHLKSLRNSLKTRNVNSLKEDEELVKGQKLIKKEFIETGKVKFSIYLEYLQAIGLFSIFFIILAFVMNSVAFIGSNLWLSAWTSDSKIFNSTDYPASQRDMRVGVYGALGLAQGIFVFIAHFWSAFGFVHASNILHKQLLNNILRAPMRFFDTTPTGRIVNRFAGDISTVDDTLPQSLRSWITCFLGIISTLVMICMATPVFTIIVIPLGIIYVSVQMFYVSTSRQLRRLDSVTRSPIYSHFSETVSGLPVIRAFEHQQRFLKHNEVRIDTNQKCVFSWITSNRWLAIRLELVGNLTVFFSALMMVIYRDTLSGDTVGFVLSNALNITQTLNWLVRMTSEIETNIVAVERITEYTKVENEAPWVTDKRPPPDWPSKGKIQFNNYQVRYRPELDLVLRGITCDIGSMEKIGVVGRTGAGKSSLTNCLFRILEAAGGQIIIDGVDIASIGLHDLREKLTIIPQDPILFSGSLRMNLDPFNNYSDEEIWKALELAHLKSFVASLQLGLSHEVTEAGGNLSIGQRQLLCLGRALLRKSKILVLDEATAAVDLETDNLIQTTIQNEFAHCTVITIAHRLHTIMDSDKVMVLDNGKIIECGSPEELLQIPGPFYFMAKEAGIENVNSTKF

For the molecule `O=c1[nH]c(=O)n([C@@H]2O[C@H](CO)[C@@H](O)[C@@H]2F)cc1I` [FIAU, fialuridine], in data set [1] (FIAU 1, 10, 30 μM, 10 days), the “keratin 18 (K-18) (liver injury marker)” value is listed as “release”, the “miR122 (liver injury marker)” value was “release” and the “α-GST (liver injury marker)” value was “release”. In addition, the “release of cytokines/chemokines including IP-10” value in data set [2] was “observed”. Moreover, the “lipid accumulation (Nile red)” value in [3] (daily 1, 10, 30 μM for 10 days, human chips) is “dose-dependent increase”. Besides, in data set [4] (quadruple-cell human chips, daily FIAU 1, 10, 30 μM), the “concentrations with dose-dependent decline in albumin secretion” value was at least 1000 nM. For the same molecule, the lipid accumulation result in [5] is “no effects”. Besides, the hepatocyte function result in data set [6] is on record as “no effects”. Further, in data set [7] (Phase II clinical trials), the “patients with liver failure and death” value is 5/15.

Regarding `CN(Cc1cnc2nc(N)nc(N)c2n1)c1ccc(C(=O)N[C@@H](CCC(=O)O)C(=O)O)cc1` [MTX, Methotrexate], in the data set with stellate cells (daily 1, 10, 30 μM for 7 days), the “stellate cell activation, expression of α-SMA” value is reported as “increased expression”. Moreover, in [2] (MTX 1, 10, 30 μM, vascular channel, 1 day (FIG. 8C)), the IP-10 entry is given as “increases”. The “release of cytokines/chemokines including IP-10” value in data set [2] was “observed”. Also, the “lipid accumulation (Nile red)” value in [3] (daily 1, 10, 30 μM for 7 days) is given as “microscopic evidence of lipid accumulation”. Moreover, the hepatocyte morphology result in data set [8] is listed as “no abnormalities”. Also, the “albumin synthesis / secretion” value in [4] (quadruple-cell human chips, 7 days) is reported as “no abnormalities”. Further, the “maximal plasma concentration at which liver injury occurs in humans” value in data set [7] (some patient populations) is around 1 µM.

For the molecule `Cc1cc(OCCCS(C)(=O)=O)cc(C)c1-c1cccc(COc2ccc3c(c2)OC[C@H]3CC(=O)O)c1` [TAK-875], the “% aSMA positive area from the vascular channel” value in the data set on stellate cells (10 or 30 uM for 15 days, human Liver-Chips) is “Not significant”. Further, in [1] (30 μM, 14 days), the “release of K18” value was “increased release”. The “markers of hepatocyte function or necrosis (albumin and K18)” value in data set [1] (accompanying mitochondrial perturbations, human chips) is recorded as “minimal changes”. Also, the IL-6 release result in data set [2] (10 μM) was “significant release”; in data set [2] (30 μM (highest dose)), “not observed”. Besides, the MCP-1 release result is listed as “significant release” in data set [2] (10 μM) and “not observed” in data set [2] (30 μM (highest dose)). For the same molecule, in [3] (end of the 2-week treatment), the “lipid droplet accumulation (AdipoRed)” value is “detected”. Moreover, in data set [4] (30 μM, 14 days, human chips), the albumin production entry is on record as “decreased”. Moreover, the “biliary efflux of the MRP2 substrate CDFDA” value at MRP2 is recorded as “dose-dependent decrease”. In addition, in data set [9], the “mitochondrial membrane potential, TMRM distribution” value is “dose-related and time-dependent redistribution”. The “formation of ROS” value in data set [10] is given as “increase”. For the same molecule, in [7] (Phase III trials), the “incidence of treatment-related elevations in transaminases (>3-fold rise in upper limit of normal)” value is recorded as 2.7%.
